Data taken from US11020409B2, “Broad antiviral therapy with membrane modifying oxysterols” (priority 2012, dated 2021).
Several values for one entry are separate records, joined by “and”; a condition that tells them apart may be missing. Equal values may be shown once. Read-outs that look alike come from different tables or passages of the source.

How the values were obtained:
[1] = test system: VSV-GFP; assay: microbe, parasite or virus in culture; assay type: cell-based, vesicular stomatitis virus
[2] = test system: HIV NL4-3; assay type: cell-based, human-immunodeficiency virus
[3] = test system: HEK293T
[4] = test system: RVFV (MP12 vaccine strain); assay type: cell-based, Rift Valley Fever Virus
[5] = test system: adenovirus-GFP; assay type: cell-based
[6] = test system: pseudotyped HIV-IIIB; assay type: cell-based, human-immunodeficiency virus
[7] = test system: VSVΔG-Luc/G pseudovirus; assay type: cell-based, vesicular stomatitis virus
[8] = test system: HIV-IIIB pseudovirus; assay type: cell-based, human-immunodeficiency virus
[9] = test system: Russian Spring-Summer Encephalitis Virus (RSSEV); assay type: cell-based
[10] = test system: HIV NL4-3 encoding Vpr-BlaM (NL4-3/BlaM); assay type: cell-based, human-immunodeficiency virus
[11] = test system: Ebola Zaire-GFP (EBOV); assay type: cell-based, Ebola virus
[12] = test system: Nipah fusion (F) and attachment (G) proteins; assay type: cell-based, Nipah virus
[13] = test system: VSV; assay type: cell-based, vesicular stomatitis virus
[14] = test system: Rift Valley Fever Virus ZH501 (RVFV); assay type: cell-based
[15] = test system: replication-competent VSV; assay type: cell-based, vesicular stomatitis virus
[16] = test system: VSV-G/BlaM; assay type: cell-based, vesicular stomatitis virus
[17] = test system: NL4-3-GFP; assay type: cell-based, human-immunodeficiency virus
[18] = test system: VSV-GFP; assay type: cell-based, vesicular stomatitis virus
[19] = test system: Nipah virus (Bangladesh strain); assay type: cell-based
[20] = test system: HIV NL4-R3A; assay: HIV infection in DKO-hu humanized mice; assay type: in vivo, HIV-1

## CC(C)CC[C@@H](O)[C@@H](C)[C@H]1CC[C@H]2[C@@H]3CC=C4C[C@@H](O)CC[C@]4(C)[C@H]3CC[C@]12C [22R-HC, 22-(R)-hydroxycholesterol, reference compound]
[1]
  antiviral effect on VSV-GFP: did not confer antiviral effect

## CC(C)CC[C@H](O)[C@@H](C)[C@H]1CC[C@H]2[C@@H]3CC=C4C[C@@H](O)CC[C@]4(C)[C@H]3CC[C@]12C [22S-HC, 22-(S)-hydroxycholesterol, reference compound]
[2]
  effect on HIV p24 expression: no effect

## C[C@H](CCCC(C)(C)O)[C@H]1CC[C@H]2[C@@H]3CC=C4C[C@@H](O)CC[C@]4(C)[C@H]3CC[C@]12C [25HC, 25-hydroxycholesterol]
[3]
  LDH in supernatants of cells: did not increase LDH
  LDH level: increased
[4]
  replication of RVFV (MP12), dose dependence: dose-dependent manner
[5]
  adenovirus coexpressing GFP measured by FACS: not affected
[6]
  inhibition of lateRT expression: > 99% and ~70%
[2]
  inhibition of p24 expression compared to vehicle: ~80%
[7]
  VSV-G mediated infection, addition concurrently or 1 hpi: not significantly inhibited
  inhibition of VSVΔG-Luc expression, pre-treatment: greater inhibition
[8]
  inhibition of luciferase expression from single round infection: > 50%
[9]
  replication of live RSSEV: inhibited replication
[10]
  decrease in NL4-3/Bla blue-green ratio at endpoint: ~60%
  reduction in cells expressing cleaved CCF2-AM by FACS: > 85%
[11]
  replication of live Ebola (EBOV-Zaire): inhibited replication
[12]
  syncytia formation: less syncytia formation
[12]; 2 uM
  reduction of fusion (nuclei per syncytia) relative to ethanol control: ~50%
[12]; 10 uM
  reduction of fusion (nuclei per syncytia) relative to ethanol control: ~60%
[13]
  VSV binding (VSV genomic RNA): did not inhibit binding significantly
[14]
  replication of live RVFV: inhibited replication
[15]
  reduction in the amount of VSV produced (viral genome copies by qRT-PCR): > 80%
[15]; 2.5 uM
  infectious titer of viruses from treated cells normalized for viral gRNA: equivalent plaque forming units
[16]
  VSV-G/BlaM entry: dose-dependent inhibition
[17]
  GFP expression from NL4-3-GFP (HIV transcription and translation): did not suppress GFP expression
  HIV p24 expression in supernatants of transfected cells (budding): did not affect
[18]
  VSV replication: reduced VSV replication
[19]
  replication of Nipah, dose dependence: dose-dependent manner
  replication of live Nipah (Bangladesh): inhibited replication
[1]; Vesicular stomatitis virus, HEK-293T, read-out: IC50 of inhibition of VSV-GFP expression by FACs
  IC50: ~1 µM
[20]; 50 mg/kg i.p. 12 h prior to infection and every day, 7 dpi, P<0.0001
  reduction of HIV RNA (copies/mL) in serum vs vehicle-treated mice: > 80%
[20]; 50 mg/kg i.p. daily, 14 dpi
  HIV p24 in CD4 T-cells from spleens: significantly lower
[20]; 50 mg/kg i.p. daily, CD3+ T-cell population, P<0.05
  HIV-mediated CD4 T-cell depletion in peripheral blood leukocytes: prevented HIV-mediated CD4 T-cell depletion
[20]; 50 mg/kg i.p. daily, P=0.06
  HIV-mediated CD4 T-cell depletion in the spleen: less significant

## c1cc(CN2CCCNCCNCCCNCC2)ccc1CN1CCCNCCNCCCNCC1 [AMD3100, reference compound]
[10]
  NL4-3/Bla entry: abrogated

## Cc1cn([C@H]2C[C@H](N=[N+]=[N-])[C@@H](CO)O2)c(=O)[nH]c1=O [AZT, reference compound]
[8]
  inhibition of luciferase expression from single round infection: ~70%

## CN(C)CCCN1c2ccccc2Sc2ccc(Cl)cc21 [CPZ, reference compound]
[13]
  VSV binding (VSV genomic RNA): did not inhibit binding significantly

## Cc1c(O)cccc1C(=O)N[C@@H](CSc1ccccc1)[C@H](O)CN1C[C@H]2CCCC[C@H]2C[C@H]1C(=O)NC(C)(C)C [Nelfinavir, reference compound]
[17]
  inhibition of p24 expression in supernatants: > 50%
